Data as given in patent US20230031406A1, “COMPOUNDS AND COMPOSITIONS FOR TREATING CONDITIONS ASSOCIATED WITH NLRP ACTIVITY” (Novartis AG, priority 2018, published 2023).
Like-named read-outs stand apart in the source and are kept apart here. Blank lines part the entries; values can stand above or below the compound they belong to.

Test system: PMA-differentiated THP-1 cells
Assay: IL-1β production in PMA-differentiated THP-1 cells stimulated with gramicidin (hTHP-1 assay containing 2% fetal bovine serum; Procedures 1 and 2)
Type: cell-based, human
Details: 2% fetal bovine serum
Summary of the method: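 Compound titrations in 0.37% final DMSO were added to THP-1 cells that had been plated after 16-18 h PMA treatment, 50,000 per well in 2% FBS. One hour later the cells received gramicidin (5 μM, 2 h) and were centrifuged. HTRF detected IL-1β in the collected supernatants.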

[1] = Table B1, class symbols, read-out: Average IC50 of compounds in hTHP-1 assay: hTHP-1 IC50
[2] = Homo sapiens, THP-1, Table B2, numeric bounds, read-out: hTHP-1 IC50
[3] = Homo sapiens, THP-1, Table B1, class symbols, read-out: Average IC50 of compounds in hTHP-1 assay: hTHP-1 IC50
[4] = Table B2, class symbols, read-out: hTHP-1 IC50
[5] = Homo sapiens, THP-1, Table B3, hTHP-1 assay, class symbols, read-out: IC50

SMILES: Cc1c(C(F)(F)F)nc(C(F)(F)F)c(C)c1NC(=O)N=S(N)(=O)c1cc(C(C)(C)O)cs1 (stereo not shown) [Example 738, N′-((3,5-dimethyl-2,6-bis(trifluoromethyl)pyridin-4-yl)carbamoyl)-4-(2-hydroxypropan-2-yl)thiophene-2-sulfonimidamide]
IC50 (Homo sapiens, THP-1, Table B4, class symbols, read-out: hTHP-1 IC50): 1000 to 5000 nM

SMILES: CCn1cc(F)c(S(N)(=O)=NC(=O)Nc2c3c(nc4c2CC[C@H]4C)CCC3)n1 (single isomer, unassigned) [Example 669, (R) or (S)-1-ethyl-4-fluoro-N′-(((R)-3-methyl-1,2,3,5,6,7-hexahydrodicyclopenta[b,e]pyridin-8-yl)carbamoyl)-1H-pyrazole-3-sulfonimidamide]
IC50 (Table B3, hTHP-1 assay, class symbols, read-out: IC50): 8 to 40 nM

SMILES: CC(C)(O)c1csc(S(N)(=O)=NC(=O)Nc2c3c(nc4c2CCC4)CCC3)c1 (stereo not shown) [Compound 155, N′-((1,2,3,5,6,7-hexahydrodicyclopenta[b,e]pyridin-8-yl)carbamoyl)-4-(2-hydroxypropan-2-yl)thiophene-2-sulfonimidamide]
IC50 [3]: 40 to 200 nM

SMILES: CC(C)(O)c1ccc(S(N)(=O)=NC(=O)Nc2c3c(nc4c2CCC4)CCC3)s1 (stereo not shown) [Compound 149, N′-((1,2,3,5,6,7-hexahydrodicyclopenta[b,e]pyridin-8-yl)carbamoyl)-5-(2-hydroxypropan-2-yl)thiophene-2-sulfonimidamide]
IC50 [3]: 200 to 1000 nM

SMILES: Cc1c(C(F)(F)F)nc2c(c1NC(=O)N=S(N)(=O)c1cnc(C(C)(C)O)s1)CCC2C (single isomer, unassigned) [Example 705, (S, R) or (S, S)-N′-((3,7-dimethyl-2-(trifluoromethyl)-6,7-dihydro-5H-cyclopenta[b]pyridin-4-yl)carbamoyl)-2-(2-hydroxypropan-2-yl)thiazole-5-sulfonimidamide]
IC50 [5]: 5000 to 30000 nM

SMILES: Cc1sc(S(N)(=O)=NC(=O)Nc2c3c(nc4c2CCC4C)CCC3)nc1C(C)(C)O (single isomer, unassigned) [Compound 104a, (R,R/S) or (S,R/S)-4-(2-hydroxypropan-2-yl)-5-methyl-N′-((3-methyl-1,2,3,5,6,7-hexahydrodicyclo-penta[b,e]pyridin-8-yl)carba-moyl)thiazole-2-sulfonimidamide]
IC50 [1]: 200 to 1000 nM

SMILES: CC1CCc2c1nc1c(c2NC(=O)N=S(N)(=O)c2cn(C(C)C)cn2)CCC1 (stereo not shown) [Compound 660, 1-Isopropyl-N′-((3-methyl-1,2,3,5,6,7-hexahydrodicyclopenta[b,e]pyridin-8-yl)carbamoyl)-1H-imidazole-4-sulfonimidamide]
IC50 [4]: 5000 to 30000 nM

SMILES: CCc1c(C2CC2)nc2c(c1NC(=O)N=S(N)(=O)c1cc(C(C)(C)O)cs1)CCC2 (stereo not shown) [Compound 181, N′-((2-cyclopropyl-3-ethyl-6,7-dihydro-5H-cyclopenta[b]pyridin-4-yl)carbamoyl)-4-(2-hydroxypropan-2-yl)thiophene-2-sulfonimidamide]
IC50 [3]: 200 to 1000 nM

SMILES: CC(C)(O)c1ncc([S@](N)(=O)=NC(=O)Nc2c3c(nc(CC(F)(F)F)c2C2CC2)CCC3)s1 [Example 578, (R)-N′-((3-cyclopropyl-2-(2,2,2-trifluoroethyl)-6,7-dihydro-5H-cyclopenta[b]pyridin-4-yl)carbamoyl)-2-(2-hydroxypropan-2-yl)thiazole-5-sulfonimidamide]
IC50 [5]: 1000 to 5000 nM

SMILES: Cc1c(C(F)(F)F)nc(C(F)(F)F)c(C)c1NC(=O)N=S(N)(=O)c1cc(C(C)(C)O)cs1 (single isomer, unassigned) [Example 755, (R) or (S)-N′-((3,5-dimethyl-2,6-bis(trifluoromethyl)pyridin-4-yl)carbamoyl)-4-(2-hydroxypropan-2-yl)thiophene-2-sulfonimidamide]
IC50 (Table B4, class symbols, read-out: hTHP-1 IC50): 200 to 1000 nM

SMILES: Cc1c(C2(F)CC2)nc2c(c1NC(=O)N=S(N)(=O)c1cc(C(C)(C)O)cs1)CCC2 (single isomer, unassigned) [Example 684, (S) or (R)-N′-((2-(1-fluorocyclopropyl)-3-methyl-6,7-dihydro-5H-cyclopenta[b]pyridin-4-yl)carbamoyl)-4-(2-hydroxypropan-2-yl)thiophene-2-sulfonimidamide]
IC50 (Homo sapiens, THP-1, Table B3, hTHP-1 assay, numeric values, read-out: IC50): > 30000 nM

SMILES: Cc1c(C(F)(F)F)nc2c(c1NC(=O)N=S(N)(=O)c1cc(CO)n(C(C)C)n1)CCC2 (stereo not shown) [Example 585, 5-(Hydroxymethyl)-1-isopropyl-N′-((3-methyl-2-(trifluoromethyl)-6,7-dihydro-5H-cyclopenta[b]pyridin-4-yl)carbamoyl)-1H-pyrazole-3-sulfonimidamide]
IC50 [5]: 1000 to 5000 nM

SMILES: Cc1c(C2(C)CC2)nc2c(c1NC(=O)N=S(N)(=O)c1cc(C(C)(C)O)cs1)CCC2 (stereo not shown) [Compound 669, 4-(2-Hydroxypropan-2-yl)-N′-((3-methyl-2-(1-methylcyclopropyl)-6,7-dihydro-5H-cyclopenta[b]pyridin-4-yl)carbamoyl)thiophene-2-sulfonimidamide]
IC50 (Homo sapiens, THP-1, Table B2, class symbols, read-out: hTHP-1 IC50): 5000 to 30000 nM

SMILES: CC1CCc2c1nc1c(c2NC(=O)N=S(N)(=O)c2ccn(C(C)C)n2)CCC1 (stereo not shown) [Compound 129, 1-isopropyl-N′-((3-methyl-1,2,3,5,6,7-hexahydrodicyclopenta[b,e]pyridin-8-yl)carbamoyl)-1H-pyrazole-3-sulfonimidamide]
IC50 [3]: 200 to 1000 nM

SMILES: CCn1ccc(S(N)(=O)=NC(=O)Nc2c3c(nc(C4CC4)c2C2CC2)CCC3)n1 (stereo not shown) [Example 632, N′-((2,3-dicyclopropyl-6,7-dihydro-5H-cyclopenta[b]pyridin-4-yl)carbamoyl)-1-ethyl-1H-pyrazole-3-sulfonimidamide]
IC50 [5]: 1000 to 5000 nM

SMILES: Cc1c(C2(F)CC2)nc2c(c1NC(=O)N=S(N)(=O)c1sc(C(C)(C)O)cc1F)CCC2 (stereo not shown) [Example 612, 3-Fluoro-N′-((2-(1-fluorocyclopropyl)-3-methyl-6,7-dihydro-5H-cyclopenta[b]pyridin-4-yl)carbamoyl)-5-(2-hydroxypropan-2-yl)thiophene-2-sulfonimidamide]
IC50 [5]: 1000 to 5000 nM

SMILES: CC(C)c1csc(S(N)(=O)=NC(=O)Nc2c3c(nc4c2CCC4)CCC3)c1 (stereo not shown) [Compound 173, N′-((1,2,3,5,6,7-hexahydrodicyclopenta[b,e]pyridin-8-yl)carbamoyl)-4-isopropylthiophene-2-sulfonimidamide]
IC50 [3]: 200 to 1000 nM

Now from value to compound:

IC50 [1]: 5000 to 30000 nM
SMILES: CC(C)(O)c1cc(S(N)(=O)=NC(=O)Nc2c3c(nc4c2CCC4)CCC3)nn1-c1ccccc1 (single isomer, unassigned) [Compound 159b, (S) or (R)-N′-((1,2,3,5,6,7-hexahydrodicyclo-penta[b,e]pyridin-8-yl)carbamoyl)-5-(2-hydroxypropan-2-yl)-1-phenyl-1H-pyrazole-3-sulfonimidamide]

IC50 [2]: > 30000 nM
SMILES: Cc1c(C2(C)CC2)nc2c(c1NC(=O)N=S(N)(=O)c1cc(C(C)(C)O)cs1)CCC2 (single isomer, unassigned) [Compound 669a, (S) or (R)-4-(2-Hydroxypropan-2-yl)-N′-((3-methyl-2-(1-methylcyclopropyl)-6,7-dihydro-5H-cyclopenta[b]pyridin-4-yl)carbamoyl) thiophene-2-sulfonimidamide]

IC50 [2]: > 30000 nM
SMILES: NS(=O)(=NC(=O)Nc1c2c(nc3c1CCC31CC1)CCC2)c1cnn(C(F)F)c1 (single isomer, unassigned) [Compound 638b, (S) or (R)-1-(Difluoromethyl)-N′-((1′,5′,6′,7′-tetrahydro-2′H-spiro[cyclopropane-1,3′-dicyclopenta[b,e]pyridin]-8′-yl)carbamoyl)-1H-pyrazole-4-sulfonimidamide]

IC50 [1]: 5000 to 30000 nM
SMILES: CC1(C)CCc2c1nc1c(c2NC(=O)N=S(N)(=O)c2ccn(C(F)F)n2)CCC1 (single isomer, unassigned) [Compound 122b, (S) or (R)-1-(difluoromethyl)-N′-((3,3-dimethyl-1,2,3,5,6,7-hexahydrodicyclo-penta[b,e]pyridin-8-yl)carbamoyl)-1H-pyrazole-3-sulfonimidamide]

IC50 [4]: 1000 to 5000 nM
SMILES: CCC1CCc2c1nc1c(c2NC(=O)N=S(N)(=O)c2sc(C(C)(C)O)cc2F)CCC1 (single isomer, unassigned) [Compound 671c, (R, S) or (R, R) or (S, R) or (S, S)-N′-((3-ethyl-1,2,3,5,6,7-hexahydrodicyclopenta [b,e]pyridin-8-yl)carbamoyl)-3-fluoro-5-(2-hydroxypropan-2-yl) thiophene-2-sulfonimidamide]

IC50 [4]: 200 to 1000 nM
SMILES: CCc1nc2c(c(NC(=O)N=S(N)(=O)c3cnc(C(C)(C)O)s3)c1C1CC1)CCC2 (single isomer, unassigned) [Compound 630b, (R) or (S)-N′-((3-cyclopropyl-2-ethyl-6,7-dihydro-5H-cyclopenta[b]pyridin-4-yl)carbamoyl)-2-(2-hydroxypropan-2-yl)thiazole-5-sulfonimidamide]

IC50 [1]: 5000 to 30000 nM
SMILES: CC1CCc2c1nc1c(c2NC(=O)N=S(N)(=O)c2ncc(C(C)(C)O)s2)CCC1 (single isomer, unassigned) [Compound 140ba, (S,S) or (S,R)-5-(2-hydroxypropan-2-yl)-N′-((3-methyl-1,2,3,5,6,7-hexa-hydrodicyclo-penta[b,e]pyridin-8-yl)carbamoyl)thiazole-2-sulfonimidamide]

IC50 [1]: 1000 to 5000 nM
SMILES: CC(C)(O)c1csc(S(N)(=O)=NC(=O)Nc2c3c(nc4c2CCC42CC2)CCC3)c1 (single isomer, unassigned) [Compound 114b, (S) or (R)-4-(2-hydroxy-propan-2-yl)-N′-((1′,5′,6′,7′-tetrahydro-2′H-spiro[cyclopropane-1,3′-dicyclopenta[b,e]pyridin]-8′-yl)carbamoyl)thiophene-2-sulfonimidamide]
